# Test results reported in PubChem BioAssay AID328 (DTP/NCI, 2004).
# Several values for one entry are separate records, joined by “and”; a condition that tells them apart may be missing. Equal entries are not always repeated. Inconclusive results and toxic doses are left out.
# System: BDF1 mice, P388 leukemia ip, median survival T/C
# Assay: NCI In Vivo Anticancer Drug Screen. Data for tumor model P388 Leukemia (intraperitoneal) in B6D2F1 (BDF1) mice
# Details: endpoint: median survival time, higher = longer survival
# Procedure, shortened: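 Antitumour effect was judged in vivo: survival in drug-treated mice, normalised to that of vehicle-dosed controls, gives the reported T/C.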
# [1] = dose: 25.0 mg/kg/injection, schedule: Q01DX009 (ip), vehicle: saline with Tween-80
# [2] = dose: 50.0 mg/kg/injection, schedule: Q01DX009 (ip), vehicle: saline with Tween-80
# [3] = dose: 25.0 mg/kg/injection, schedule: Q01DX009 (ip), vehicle: Klucel (hydroxypropylcellulose) (HPC)
# [4] = dose: 50.0 mg/kg/injection, schedule: Q01DX009 (ip), vehicle: Klucel (hydroxypropylcellulose) (HPC)
# [5] = dose: 100.0 mg/kg/injection, schedule: Q01DX009 (ip), vehicle: Klucel (hydroxypropylcellulose) (HPC)
# [6] = dose: 100.0 mg/kg/injection, schedule: Q04DX003 (ip), vehicle: Klucel (hydroxypropylcellulose) (HPC)
# [7] = dose: 200.0 mg/kg/injection, schedule: Q01DX009 (ip), vehicle: Klucel (hydroxypropylcellulose) (HPC)
# [8] = dose: 200.0 mg/kg/injection, schedule: Q04DX003 (ip), vehicle: Klucel (hydroxypropylcellulose) (HPC)
# [9] = dose: 400.0 mg/kg/injection, schedule: Q04DX003 (ip), vehicle: Klucel (hydroxypropylcellulose) (HPC)
# [10] = dose: 50.0 mg/kg/injection, schedule: Q01DX009 (ip), vehicle: saline
# [11] = dose: 100.0 mg/kg/injection, schedule: Q01DX009 (ip), vehicle: saline
# [12] = dose: 200.0 mg/kg/injection, schedule: Q01DX009 (ip), vehicle: saline
# [13] = dose: 100.0 mg/kg/injection, schedule: Q01DX009 (ip), vehicle: saline with Tween-80
# [14] = dose: 100.0 mg/kg/injection, schedule: Q04DX003 (ip), vehicle: saline with Tween-80
# [15] = dose: 200.0 mg/kg/injection, schedule: Q01DX009 (ip), vehicle: saline with Tween-80
# [16] = dose: 200.0 mg/kg/injection, schedule: Q04DX003 (ip), vehicle: saline with Tween-80
# [17] = dose: 400.0 mg/kg/injection, schedule: Q01DX009 (ip), vehicle: saline with Tween-80
# [18] = dose: 400.0 mg/kg/injection, schedule: Q04DX003 (ip), vehicle: saline with Tween-80
# [19] = dose: 100.0 mg/kg/injection, schedule: Q04DX003 (ip), vehicle: saline
# [20] = dose: 200.0 mg/kg/injection, schedule: Q04DX003 (ip), vehicle: saline
compound,measurement,setting,value
Nc1nc(Cc2ccccc2)c(CCCNc2ccccc2)c(=O)[nH]1,T/C,"dose: 6.25 mg/kg/injection, schedule: Q01DX009 (ip), vehicle: saline with Tween-80",107 % of control
same,T/C,[1],98 % of control
same,T/C,[2],96 % of control
CC1(C)N=C(N)N=C(N)N1c1ccc(-c2ccccc2)cc1,T/C,[3],99 % of control
same,T/C,[4],106 % of control
COC1CC(C)(O)C(OC2CCC(OC(=O)C(C)C(O)c3ccc4c(c3)C(=O)C=C(C)C4=O)C(C)O2)C(C)O1 (configuration not stated),T/C,"dose: 1.25 mg/kg/injection, schedule: Q01DX009 (ip), vehicle: saline",100 % of control and 103 % of control
same,T/C,"dose: 2.5 mg/kg/injection, schedule: Q01DX009 (ip), vehicle: saline",94 % of control and 100 % of control
same,T/C,"dose: 5.0 mg/kg/injection, schedule: Q01DX009 (ip), vehicle: saline",99 % of control
same,T/C,"dose: 10.0 mg/kg/injection, schedule: Q01DX009 (ip), vehicle: saline",99 % of control
CCOC(=O)/C=C(\C)SC1=CC(=O)C=CC1=O,T/C,"dose: 100.0 mg/kg/injection, schedule: Q01DX001 (ip), vehicle: saline with Tween-80",106 % of control
same,T/C,"dose: 200.0 mg/kg/injection, schedule: Q01DX001 (ip), vehicle: saline with Tween-80",100 % of control
CCOC(=O)Nc1ccc2c(c1)/C(=N\NC(N)=S)c1ccccc1-2,T/C,"dose: 0.37 mg/kg/injection, schedule: Q01DX009 (ip), vehicle: gum acacia",120 % of control
same,T/C,"dose: 0.75 mg/kg/injection, schedule: Q01DX009 (ip), vehicle: gum acacia",108 % of control
same,T/C,"dose: 1.5 mg/kg/injection, schedule: Q01DX009 (ip), vehicle: gum acacia",96 % of control and 108 % of control
same,T/C,"dose: 3.0 mg/kg/injection, schedule: Q04DX003 (ip), vehicle: gum acacia",92 % of control
same,T/C,"dose: 6.0 mg/kg/injection, schedule: Q04DX003 (ip), vehicle: gum acacia",100 % of control
same,T/C,[4],86 % of control
same,T/C,[5],90 % of control
same,T/C,[6],86 % of control
same,T/C,"dose: 200.0 mg/kg/injection, schedule: Q01DX001 (ip), vehicle: Klucel (hydroxypropylcellulose) (HPC)",86 % of control
same,T/C,[7],100 % of control
same,T/C,[8],100 % of control
same,T/C,[9],109 % of control
same,T/C,"dose: 400.0 mg/kg/injection, schedule: Q04DX003 (ip), vehicle: gum acacia",100 % of control
c1ccc2cc(OCC3CO3)c(OCC3CO3)cc2c1 (configuration not stated),T/C,"dose: 30.0 mg/kg/injection, schedule: Q01DX005 (ip), vehicle: saline with Tween-80",161 % of control
same,T/C,"dose: 60.0 mg/kg/injection, schedule: Q01DX005 (ip), vehicle: saline with Tween-80",157 % of control
same,T/C,"dose: 120.0 mg/kg/injection, schedule: Q01DX005 (ip), vehicle: saline with Tween-80",176 % of control
CC(=O)N/N=C(/C)C(=O)O,T/C,"dose: 12.5 mg/kg/injection, schedule: Q01DX009 (ip), vehicle: water",93 % of control and 102 % of control and 114 % of control
same,T/C,"dose: 12.5 mg/kg/injection, schedule: Q04DX003 (ip), vehicle: water",95 % of control
same,T/C,"dose: 25.0 mg/kg/injection, schedule: Q04DX003 (ip), vehicle: water",100 % of control
same,T/C,"dose: 50.0 mg/kg/injection, schedule: Q04DX003 (ip), vehicle: water",100 % of control
COc1ccc2c(c1)C1(C)CCN(C)CC(C1)C2O (configuration not stated),T/C,[10],96 % of control
same,T/C,[11],89 % of control
same,T/C,[12],92 % of control
OC1CC2C3C4C1C1C2C3C41 (configuration not stated),T/C,"dose: 100.0 mg/kg/injection, schedule: Q01DX001 (ip), vehicle: saline",95 % of control
same,T/C,[6],115 % of control
same,T/C,"dose: 200.0 mg/kg/injection, schedule: Q01DX001 (ip), vehicle: saline",86 % of control
same,T/C,[8],115 % of control
same,T/C,[9],90 % of control
Cc1c2oc3c(C)c(N)cc(C(=O)NC4C(=O)NC(C(C)C)C(=O)N5CCCC5C(=O)N(C)CC(=O)N(C)C(C(C)C)C(=O)OC4C)c3nc-2c(C(=O)NC2C(=O)NC(C(C)C)C(=O)N3CCCC3C(=O)N(C)CC(=O)N(C)C(C(C)C)C(=O)OC2C)c(N)c1=O (configuration not stated),T/C,"dose: 75.0 micrograms/kg/injection, schedule: Q01DX009 (ip), vehicle: saline + alcohol",153 % of control
same,T/C,"dose: 225.0 micrograms/kg/injection, schedule: Q04DX003 (ip), vehicle: saline + alcohol",151 % of control
same,T/C,"dose: 450.0 micrograms/kg/injection, schedule: Q04DX003 (ip), vehicle: saline + alcohol",90 % of control
COC(=O)C1(C(=O)OC)N=C(C)OO1,T/C,[2],121 % of control
same,T/C,[13],112 % of control
Cc1c(C)c([N+](=O)[O-])c(Br)c(C)c1[N+](=O)[O-],T/C,[13],95 % of control
same,T/C,[14],104 % of control
same,T/C,"dose: 132.0 mg/kg/injection, schedule: Q04DX003 (ip), vehicle: saline with Tween-80",109 % of control
same,T/C,[15],90 % of control
same,T/C,[16],118 % of control
same,T/C,"dose: 300.0 mg/kg/injection, schedule: Q04DX003 (ip), vehicle: saline with Tween-80",100 % of control
same,T/C,[17],95 % of control
same,T/C,[18],122 % of control
Cn1cnc([N+](=O)[O-])c1[Se]c1nc(N)nc2c1ncn2C1CC(O)C(CO)O1 (configuration not stated),T/C,"dose: 50.0 mg/kg/injection, schedule: Q04DX003 (ip), vehicle: saline",95 % of control
same,T/C,[19],90 % of control
same,T/C,[20],90 % of control
CCCCCCCCCCCCN1CCCC(C)C1 (configuration not stated),T/C,"dose: 12.5 mg/kg/injection, schedule: Q01DX009 (ip), vehicle: saline with Tween-80",114 % of control
same,T/C,[1],109 % of control
same,T/C,[2],98 % of control and 120 % of control
CCCc1nc2c(OC)ccc(OC)c2nc1C,T/C,[3],100 % of control
same,T/C,[4],100 % of control
same,T/C,[5],100 % of control
same,T/C,"dose: 150.0 mg/kg/injection, schedule: Q01DX009 (ip), vehicle: Klucel (hydroxypropylcellulose) (HPC)",90 % of control
O=C(NO)c1ccc([N+](=O)[O-])cc1,T/C,"dose: 240.0 mg/kg/injection, schedule: Q01DX010 (ip), vehicle: water",92 % of control
same,T/C,"dose: 270.0 mg/kg/injection, schedule: Q01DX010 (ip), vehicle: water",90 % of control and 113 % of control
same,T/C,"dose: 360.0 mg/kg/injection, schedule: Q01DX010 (ip), vehicle: water",123 % of control
CC1(C)c2ccccc2C(C)(C(Cl)(Cl)Cl)c2ccc(Cl)cc21 (configuration not stated),T/C,[2],96 % of control
same,T/C,[13],99 % of control
same,T/C,[15],92 % of control
same,T/C,[17],97 % of control
COc1ccc(-c2c(CC(=O)O)c3cc(OC)ccc3n2Cc2ccc(Cl)cc2)cc1,T/C,[13],90 % of control
same,T/C,[15],113 % of control
same,T/C,[17],90 % of control
O=S(=O)(NS(=O)(=O)c1ccc(Cl)cc1)c1ccc(Cl)cc1,T/C,[4],95 % of control
same,T/C,[5],115 % of control
same,T/C,[6],95 % of control
same,T/C,[7],115 % of control
same,T/C,[8],86 % of control
C[N+](C)(C)CC[N+](C)(C)C,T/C,[11],93 % of control
same,T/C,[19],93 % of control
same,T/C,[12],101 % of control
same,T/C,[20],118 % of control
same,T/C,"dose: 400.0 mg/kg/injection, schedule: Q01DX009 (ip), vehicle: saline",93 % of control
same,T/C,"dose: 400.0 mg/kg/injection, schedule: Q04DX003 (ip), vehicle: saline",107 % of control
S=C1N(c2ccccc2)CN(C2CCCCC2)CN1c1ccccc1,T/C,[2],89 % of control
same,T/C,[13],90 % of control
same,T/C,[15],89 % of control
CC(C)=CCC/C(C)=C/COC(=O)Cc1ccccc1,T/C,[13],104 % of control
same,T/C,[14],100 % of control
same,T/C,[15],109 % of control
same,T/C,[16],105 % of control
same,T/C,[17],118 % of control
same,T/C,[18],122 % of control
Nc1cc(I)c2cccnc2c1O,T/C,"dose: 6.25 mg/kg/injection, schedule: Q01DX009 (ip), vehicle: saline",93 % of control and 115 % of control
same,T/C,"dose: 12.5 mg/kg/injection, schedule: Q01DX009 (ip), vehicle: saline",90 % of control and 99 % of control
same,T/C,"dose: 25.0 mg/kg/injection, schedule: Q01DX009 (ip), vehicle: saline",123 % of control
same,T/C,[10],117 % of control
same,T/C,[11],124 % of control
